Where two headings read alike, the source gives them in different places.

One assay concerns NMDA receptor. Description: Radioligand binding: displacement of [3H]MK-801 from rat forebrain membranes. To be noted: for NMDA receptor binding / affinity: MK-801 binding to membranes. The procedure, abridged:
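Test compounds competed with tritium-labelled MK-801 for binding to brain membranes, a read-out of non-competitive NMDA antagonism.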
A general note: Loss of bound radioactivity is the signal in a displacement assay; it reports binding, not function.

For assay [1], the system named is Nitric Oxide Synthase (NOS). Description: Inhibition of nitric oxide synthase (nitrite fluorimetric assay, LPS-stimulated macrophage cultures). It is filed as cell-based. To be noted: LPS-stimulated macrophages. In outline: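 Nitrite/nitrate end-products of NOS quantified by in vitro fluorimetric assay in macrophage cultures stimulated with LPS. Compounds tested for inhibition of NOS activity.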

In the next assay the test system is transient MCAo in rats. Nature of the assay: Transient MCAo evaluated by the staircase test. The format is in vivo. To be noted: for reduction of infarct volume compared to vehicle: not statistically different. The method, then:
The materials for this procedure are identical to those from Physiological Example 5, except for the different concentrations of PRS-211,095. The procedural differences are as follows: • Male Sprague Dawley rats, 230-270 gr (Harlan, Israel) were used. The following compounds and their respective concentrations were tested: • Dexanabinol and analogs PRS-211,095 and PRS-211,220 in PEG ethanol cosolvent 50 mg/ml. Dexanabinol, the analogs and their vehicle were diluted in Intralipid® 20% (Pharmacia) prior to drug administration.
The procedure is essentially as described in Montoya et al. (Montoya, Campbell-Hope, Pemberton and Dunnet, J. Neurosci. Meth. 36:219-228, 1991) Animals were kept under mild food deprivation for 3-5 days, receiving 15-gr. food once a day (between 16:00 and 17:00) and free access to water. Animals were trained prior to the test for 3-5 days according to the protocol of Sharkey et. al. (Sharkey, Crawford, Butcher and Martson, Stroke 27:2282-2286, 1996).
In brief, the staircase box contains two rows of seven stairs in each. Two 45 mg food pellets were placed on each step. Animals were placed in the box for 15 minutes sessions. At the end of the session the number of eaten (grasped) and displaced pellets was counted and recorded. Animals were tested twice a day, 4 hours apart. The first session was performed between 8-9 AM and second between 12-13 PM. The animals were trained until they grasped (ate) at least 8 pellets from each set of stairs for two consecutive sessions. Up to one week after the end of the successful training session the animals underwent transient MCAo. Transient MCAo was performed in essentially the same manner as described in Physiological example 5 with the following modification at step i: • Two minutes prior to thread removal rats were re-anesthetized and administered IV with Dexanabinol 5mg/kg, analogs PRS-211,220 or PRS-211,095 at 0.5, 2.5, 5 or 10 mg/kg or vehicle 5 ml/kg. One additional group was sham-treated.
Animals were allowed to recover from the surgery for five days. The mild food deprivation was re-employed during the days following the ischemic insult. They were tested in the staircase box using the above method for 9-12 days. Animals were weighed twice a week during this period.
At the end of the evaluation period, animals were euthanized with pentobarbitone 100 mg/kg IP. The animals were perfused through the heart with heparinized 4% formaldehyde solution in PBS (pH 7.4). Brains were then removed, and kept in the same solution for at least 24h. Then the brains - from the rostral side of the cortex to the cerebellum- were sunk in 30% sucrose in PBS, cryosectioned (20 µm), dried and stained with thionin for histological evaluation of the brain infarct volume. Eight sections at the levels of: 3.3;+2.8;+1.8; +0.8; -0.4;-1.4; -2.2; and -3.4 from Bregma were measured (Swanson, Rat Brain Atlas, 1992). Sections were captured by a CCD camera (V-tech MP-470) and image analyzed (Scion image 1.62A). Infarct size was determined from the series of the 8 sections by either calculation of the infarct volume (mm3) by summing the series of mean lesion areas of two adjacent sections multiplied by the distance between them or calculation of the mean infarct size as percentage of the contralateral hemisphere size; calculation of the mean of the surviving ipsilateral side as percentage of the contralateral hemisphere size; calculation of the mean ipsilateral side ventricle as percentage of the contralateral hemisphere ventricle.
• a. The infarct size was compared using ANOVA (analysis of variance) followed by Duncan's post hoc test. • b. […]

[2] abbreviates: [3H]MK-801 binding, text to Figure 2, read-out: mean IC50.
Setting [3] is: displacement of [3H]MK-801, rat forebrain membranes, read-out: NMDA BINDING IC50.

The term IC50 denotes the point on the concentration scale where inhibition reaches its midpoint. A word on the inhibition: it is the share of the control response that was lost under treatment. Lower therefore signals a weak effect. Turning to `CCCCCCC(C)(C)c1cc(O)c2c(c1)OC(C)(C)[C@H]1CC=C(Cn3ccnc3)C[C@H]21` (single isomer, unassigned) [211,095-000], the “NMDA receptor binding / affinity” value in the assay with NMDA receptor is recorded as “relatively high affinity”. Besides, the IC50 at NMDA receptor (setting [2]) and at NMDA receptor (setting [3]) was 2.5 µM throughout. In assay [1], this molecule came in with an inhibition at 10 µM of 14%. Moreover, the “contralateral performance, pellet consumption” value in the assay with transient MCAo in rats (0.5 mg/kg) was “moderately improved pellet consumption”; in the assay with transient MCAo in rats (2.5 mg/kg), “moderately improved pellet consumption”; with transient MCAo in rats (5 mg/kg), “robust improvement”; in the assay on transient MCAo in rats (10 mg/kg) it was “robust improvement”. In addition, the “infarct volume, protection” value in the assay with transient MCAo in rats (2.5 mg/kg, histopathology) is reported as “No protection”. The “reduction of infarct volume compared to vehicle” value in the assay with transient MCAo in rats (5 mg/kg, histopathology) came out at 35%. Moreover, the “Mortality Rate(%)” value with transient MCAo in rats (Table 4, 0.5 mg/kg IV) is 21%; in the assay with transient MCAo in rats (Table 4, 2.5 mg/kg IV) it was 30%; in the assay with transient MCAo in rats (Table 4, 5 mg/kg IV), 0%; in the assay on transient MCAo in rats (Table 4, 10 mg/kg IV), 9%. The “No. Dead Animals” value is on record as 3 in the assay on transient MCAo in rats (Table 4, 0.5 mg/kg IV); 3 in the assay with transient MCAo in rats (Table 4, 2.5 mg/kg IV); 0 in the assay on transient MCAo in rats (Table 4, 5 mg/kg IV); 1 with transient MCAo in rats (Table 4, 10 mg/kg IV).

In general, Ki refers to the equilibrium dissociation constant of an inhibitor or competing ligand from its target. On to `CCCCCCC(C)(C)c1cc(O)c2c(c1)OC(C)(C)[C@H]1CC=C(CO)C[C@H]21` [211,007-000 HU-211, 1,1 dimethyl heptyl-(3 S,4S)-7-hydroxy-Δ^6-tetrahydrocannabinol, reference compound], for which, in the assay on NMDA receptor, the “NMDA receptor binding / affinity” value is given as “competes with the binding of MK-801”. The IC50 at NMDA receptor (setting [2]) and on NMDA receptor (setting [3]) was 10 µM throughout. The Ki at NMDA receptor (inhibition of [3H]MK-801 binding, read-out: inhibition constant (KI)) was found to be 11 ± 1.3 µM. Further, at 10 µM the inhibition in assay [1] was 20%. Further, in the assay with transient MCAo in rats (0.5 mg/kg), the “contralateral performance, pellet consumption” value is “No improvement”. Besides, the “reduction of infarct volume compared to vehicle” value with transient MCAo in rats (5 mg/kg, histopathology) worked out at 35%. In addition, the “Mortality Rate(%)” value in the assay on transient MCAo in rats (Table 4, 5 mg/kg IV) turned out to be 0%; in the assay on transient MCAo in rats (Table 5, 0.5 mg/kg IV), 36%. The “No. Dead Animals” value in the assay on transient MCAo in rats (Table 4, 5 mg/kg IV) was found to be 0; in the assay with transient MCAo in rats (Table 5, 0.5 mg/kg IV), 4.
